In data set [1] the test system is Plasmodium falciparum. The experiment in a line: Antiplasmodial activity against chloroquine-sensitive Plasmodium falciparum FCR-3 infected in human erythrocytes measured after 72 hrs by malstat reagent based LDH release assay. The format is functional, organism-based. The conditions noted are these: FCR-3/Gambia. (LDH leaks from cells whose membrane has failed.)

Data set [2] has as its system Plasmodium falciparum. Description: Antiplasmodial activity against chloroquine-resistant Plasmodium falciparum K1 infected in human erythrocytes measured after 72 hrs by malstat reagent based LDH release assay. In kind it is functional, organism-based. Particulars: K1, 72 h.
Data set [3] in a line: Selectivity index, ratio of cytotoxic concentration for human MRC5 cells to IC50 for chloroquine-resistant Plasmodium falciparum K1 infected in human erythrocytes.
A short description of data set [4]: Binding affinity to hemin at pH 5.2 by ITC.
Data set [5] deals with Plasmodium berghei. The experiment in a line: Antimalarial activity against Plasmodium berghei N infected in mouse assessed as mouse survival at 30 mg/kg, sc once daily for 4 consecutive days starting from 2 hrs post infection relative to control. The format is functional.
Data set [6] deals with Plasmodium berghei. The experiment in a line: animal or person. The format is functional. The conditions noted are these: N, in Mus musculus, sc.
Data set [7] in a line: Inhibition of Plasmodium falciparum FCR-3 HDP expressed in Escherichia coli assessed as reduction in hemazoin formation. The arrangement: species or system Plasmodium falciparum FCR-3/Gambia.
Data set [8] concerns Plasmodium berghei. The experiment in a line: Antimalarial activity against Plasmodium berghei N infected in mouse assessed as mouse survival at 30 mg/kg, po once daily for 4 consecutive days starting from 2 hrs post infection relative to control. The format is functional.
Data set [9] has as its system Plasmodium berghei. Description: animal or person. The format is functional. Particulars: N, in Mus musculus, po.
For data set [10], the system named is Plasmodium berghei. The experiment in a line: Antimalarial activity against Plasmodium berghei N infected in mouse assessed as mouse survival at 15 mg/kg, po once daily for 4 consecutive days starting from 2 hrs post infection relative to control. In kind it is functional.
Data set [11] has as its system Plasmodium berghei. The experiment in a line: Antimalarial activity against Plasmodium berghei N infected in mouse assessed as inhibition of parasitemia at 15 mg/kg, po once daily for 4 consecutive days starting from 2 hrs post infection measured on day 4 post last dose relative to control. The format is functional.

Active and inactive are the calls of the source. The calls are words filed in the database; no cut-off is given here. Some results are limits rather than exact numbers.

Take `CN(CCNC(=O)C=Cc1cnc[nH]1)CCNc1ccnc2cc(Cl)ccc12`: the IC50 (commonly the concentration that gives 50% inhibition) worked out at 750 nM in the data set on Plasmodium falciparum [1] and 18000 nM in the data set on Plasmodium falciparum [2]. Further, the selectivity ratio in [3] is over 14.
For `CN(CCNc1ccc2ccccc2n1)CCNc1ccc2ccccc2n1` the same measures were 21000 nM, 18000 nM and 17.
In the case of `CN(CCNC(=O)C=Cc1ccc2ccccc2c1)CCNc1ccnc2cc(Cl)ccc12`, the outcome in data set [4] was Active. In addition, the survival at 30 mg/kg with Plasmodium berghei [5] turned out to be 223%; with Plasmodium berghei [8], 100%. In addition, the IC50 in the data set on Plasmodium falciparum [1] was 12 nM; in the data set on Plasmodium falciparum [2], 28 nM; in [7], 12 nM. For the same molecule, the figures for the inhibition in vivo at 30 mg/kg in the data set on Plasmodium berghei [6] and in the data set on Plasmodium berghei [9] were 100% and 23.5%, respectively. Further, the selectivity ratio in data set [3] is 1200.
For the molecule `CN(CCNc1ccc2ccccc2n1)CCNc1ccnc2cc(Cl)ccc12`, the figures for the IC50 with Plasmodium falciparum [1] and with Plasmodium falciparum [2] were 29 nM and 370 nM, respectively. In addition, the selectivity ratio in data set [3] is 36.
For `CN(CCNc1nc2ccccc2[nH]1)CCNc1nc2ccccc2[nH]1`, the IC50 was found to be 17300 nM in the data set with Plasmodium falciparum [1] and 19000 nM in the data set on Plasmodium falciparum [2]. The selectivity ratio in [3] was determined as 4.7.
The corresponding values for `CN(CCCNC(=O)C=Cc1ccc2ccccc2c1)CCCNc1ccnc2cc(Cl)ccc12` are 4.9 nM, 10 nM and 140.
Turning to `CN(CCNc1ncccn1)CCNc1ccnc2cc(Cl)ccc12`, the IC50 in the data set on Plasmodium falciparum [1] worked out at 210 nM; with Plasmodium falciparum [2] it was 750 nM. The selectivity ratio in data set [3] was found to be 40.
For the molecule `CN(CCNC(=O)C=Cc1ccc2ccccc2n1)CCNc1ccnc2cc(Cl)ccc12`, the results for the IC50 in the data set with Plasmodium falciparum [1] and in the data set on Plasmodium falciparum [2] were 76 nM and 870 nM, respectively. In addition, the selectivity ratio in data set [3] was found to be 6.
Turning to `CCN(CC)CCCC(C)Nc1ccnc2cc(Cl)ccc12` (stereo unspecified) [CHLOROQUINE], the outcome in data set [4] was Active. Also, the IC50 in data set [7] amounted to 46 nM.
As to `CN(CCNc1nc2ccccc2[nH]1)CCNc1ccnc2cc(Cl)ccc12`, the IC50 is 230 nM with Plasmodium falciparum [1] and 3100 nM in the data set with Plasmodium falciparum [2]. Besides, the selectivity ratio in data set [3] was found to be 8.5.
`C[C@H]1[C@H](OC(=O)CCC(=O)O)O[C@@H]2O[C@@]3(C)CC[C@H]4[C@H](C)CC[C@@H]1[C@@]24OO3` [ARTESUNATE]: in the data set on Plasmodium berghei [10], the survival at 15 mg/kg came to 103%. For the same molecule, the inhibition in vivo – broadly, the change of the read-out against control, counted positive when it falls – at 15 mg/kg in the data set with Plasmodium berghei [11] was found to be 95.2%.
In the case of `CN(CCCNc1ccc2ccccc2n1)CCCNc1ccnc2cc(Cl)ccc12`, the result in data set [4] was Active. Further, the IC50 in the data set on Plasmodium falciparum [1] was found to be 0.92 nM; in the data set with Plasmodium falciparum [2], 37 nM; in data set [7] it was 0.92 nM. For the same molecule, the selectivity ratio in [3] was found to be 61.
Turning to `CN(CCNc1ccccn1)CCNc1ccnc2cc(Cl)ccc12`, the figures for the concentration for half-maximal inhibition (IC50) in the data set with Plasmodium falciparum [1] and in the data set with Plasmodium falciparum [2] were 510 nM and 1100 nM, respectively. The selectivity ratio in data set [3] was found to be 430.
As for `CN(CCNc1nccc2ccccc12)CCNc1ccnc2cc(Cl)ccc12`, the results for the IC50 in the data set on Plasmodium falciparum [1] and in the data set with Plasmodium falciparum [2] were 24 nM and 270 nM, respectively. For the same molecule, the selectivity ratio in [3] was determined as 36.
`CN(CCCNc1ccnc2cc(Cl)ccc12)CCCNc1ccnc2cc(Cl)ccc12`: the IC50 is 97 nM in the data set with Plasmodium falciparum [1] and 21 nM with Plasmodium falciparum [2]. The selectivity ratio in [3] was determined as 66.
